Bounds are passed on as bounds.

For orientation: IC50 means the concentration at which inhibition is half-maximal.

Test [1] deals with PC-3. As to the kind of experiment: Antiproliferative activity against androgen-independent prostate cancer PC3 cell line by MTS assay. In kind it is functional, cell-based. The settings on record: Homo sapiens. (Tetrazolium assays rely on reduction of a dye to a coloured formazan, in cell work by metabolically active cells.)
In test [2] the test system is MDA-MB-231. As to the kind of experiment: Antiproliferative activity against estrogen-independent breast cancer MDA-MB-231 cell line by MTS assay. In kind it is functional, cell-based. Conditions: Homo sapiens.
Test [3] has as its system MCF7. The test is described as follows: Antiproliferative activity against estrogen-dependent breast cancer MCF7 cell line by MTS assay. In kind it is functional, cell-based. The settings on record: Homo sapiens.
Test [4] has as its target Tubulin (Sus scrofa, UniProt P02554+P02550). As to the kind of experiment: Inhibition of porcine brain tubulin polymerization by GTP-induced assembly.

In the case of `COc1cc([C@@H]2c3cc4c(cc3[C@H](O)[C@H]3COC(=O)[C@H]23)OCO4)cc(OC)c1OC` [PODOFILOX], the IC50 in test [1] is 0.013 µM; in test [2], 0.008 µM.
As for `O=C1Nc2ccccc2/C1=C\c1ccc(O)cc1`, the IC50 in test [3] is 25.7 µM; in test [4], above 40 µM; in test [1], above 50 µM; in test [2], 17.5 µM.
On to `COc1ccc2c(c1)NC(=O)/C2=C/c1ccc(O)cc1`, for which the IC50 in test [3] came to 0.23 µM; in test [4], 18 µM; in test [1], 0.64 µM; in test [2], 2.6 µM.
For `COc1ccc2c(c1)NC(=O)/C2=C/c1cccc(O)c1` the same measures were 0.39 µM, 9.1 µM, 0.54 µM and 1.4 µM.
For the compound `O=C1Nc2cc(O)ccc2/C1=C\c1cccc(O)c1`, the IC50 in test [3] is 8.6 µM; in test [4] it was above 40 µM; in test [1], 19.5 µM; in test [2] it was 4.3 µM.
On to `O=C1Nc2cc(O)ccc2/C1=C\c1ccc(O)cc1`, for which the IC50 was 19.7 µM in test [3], above 40 µM in test [4], 44.7 µM in test [1] and 9.4 µM in test [2].
`O=C1Nc2ccccc2/C1=C\c1cccc(O)c1`: the IC50 in test [3] is 31.4 µM; in test [4], above 40 µM; in test [1], above 50 µM; in test [2] it was 16.9 µM.
The corresponding values for `COc1ccc2c(c1)NC(=O)/C2=C/c1cc(OC)c(OC)c(OC)c1` are 0.0007 µM, 4.5 µM, 0.0082 µM and 0.0009 µM.
